# In publication PMC9227536, “Prediction of Pharmacokinetics of IDP-73152 in Humans Using Physiologically-Based Pharmacokinetics” (Pharmaceutics, 2022):
# Columns and labels:
# the bacterial strains = experiment: In vitro minimum inhibitory concentration, preliminary screening; type: cell-based; settings: preliminary screening study, against the bacterial strains
# [1] = Physicochemical properties (Table S3)
# [2] = Stability in plasma, mouse; type: in vitro ADME; settings: mice plasma
# Procedure: (§1) The unbound fractions of IDP-73152 in various matrices were measured according to the manufacturer's instructions for the rapid equilibrium dialysis (RED) device (ThermoFisher Scientific, Waltham, MA, USA). Briefly, IDP-73152 was added to the plasma or the microsomal/hepatocyte incubation buffer from various species (i.e., mouse, rat, dog, and human for microsomal incubation; rat for hepatocyte incubation) to obtain final concentrations of the compound at 0.3, 1, and 3 μM. After the membrane insert was placed in the RED plate, the solution containing IDP-73152 was added (400 μL) to the sample chamber, and the dialysis buffer (600 μL) was added to the buffer chamber. The RED plate was sealed with parafilm and then incubated at 37 °C in the orbital shaker (Lab Companion, Daejeon, Korea) at 100 rpm for 5 h. […] The IDP-73152 concentration in the buffer/sample chambers (i.e., CBuffer Chamber and CSample Chamber) was determined by an assay. Thus, the fraction unbound was defined as:(2) % Fraction unbound=(CBuffer Chamber/CSample Chamber)×100% When necessary, the stability of IDP-73152 in the matrix was also determined at 5 h. […] Accordingly, the kinetics of IDP-73152 instability were determined in the rat blood at a final concentration of 0.3 μM. […]
# [3] = Metabolic stability in liver microsomes, mouse; type: in vitro ADME
# Procedure: In this study, the metabolic stability of IDP-73152 in microsomes from mice, rats, dogs, and humans, as well as rat hepatocytes, was determined. For a microsomal incubation study, the incubation mixtures, containing mouse, rat, dog, or human liver microsomes at a protein concentration of 0.5 mg/mL, 3.3 mM MgCl2, and 1.3 mM NADPH, in a 100 mM potassium phosphate buffer (pH 7.4), were preincubated for 3 min at 37 °C. In parallel, a control incubation mixture (i.e., identical composition to that of the incubation mixture without NADPH) was also prepared for comparison. The reaction was initiated by the addition of a 10 × solution of IDP-73152 (final concentration in mixtures of 1 μM) to the incubation mixtures or the control incubation mixtures. The mixtures were incubated in a shaking water bath (37 °C, 90 rpm). Aliquots (30 μL) were collected at 0, 15, 30, and 45 min from the mixture and the reaction was terminated by the addition of a 4-fold volume of ice-cold acetonitrile to the sample. The mixture was then vortexed for 5 min and centrifuged for 10 min at 10,000× g. The supernatant was collected and stored at -80 °C until the analysis. For the hepatocyte incubation study, rat hepatocytes were freshly prepared using the two-step collagenase perfusion method with slight modifications. After the isolation, cell viability during the preparation process was first determined by a trypan blue exclusion assay prior to the stability study. The preparation was considered adequate for subsequent studies if the viability was greater than 80%. When appropriate, the hepatocytes were resuspended in Williams' media E containing 10% fetal bovine serum, 1% penicillin-streptomycin, and 0.01% insulin-transferrin-selenium (i.e., 10 mg/mL insulin, 5.5 mg/mL transferrin, and 5 mg/mL selenium) at pH 7.4. The reaction was carried out with the hepatocyte suspension prepared at 1 × 10^6 cells/mL (0.5 mL) and initiated by the addition of equal volume of IDP-73152 solution (i.e., final concentration of the compound at 1 μM in 0.5 × 10^6 cells/mL of hepatocytes) to the hepatocyte suspension. […] Assuming first-order disappearance kinetics, the slope k of the logarithmically transformed IDP-73152 concentration in the sample versus time plot was determined by the linear regression analysis of the data. The total intrinsic clearance (CLint,mic, μL/min/mg protein for microsomal incubation study and CLint,hep, μL/min/million cells for hepatocytes incubation study) was then calculated using the following equations:(4) CLint, mic=k×Volume of incubation medium (μL)/Protein in incubation medium (mg) (5) CLint,hep=k×Volume of incubation (μL)/Number of cells in incubation (×10^6) The unbound intrinsic clearance, with respect to the whole liver ([…]), was then estimated for the two cases. […]
# [4] = Stability in plasma, human; type: in vitro ADME; settings: humans plasma
# Procedure: as §1
smiles,measurement,setting,value
CC(C)(C)[C@H](NC(=O)[C@H](CC1CCCC1)CN(O)C=O)C(=O)N1CCC(NCc2cc(F)c(F)cc2F)CC1 [IDP-73152],in vitro minimum inhibitory concentration values,the bacterial strains,"comparable to, or less than, those of linezolid and vancomycin"
same,logP,[1],-0.52
same,pKa,[1],8.8
same,percentage remaining in plasma at 5 h,"[2]; 5 h, 37 °C",92.3 ± 2.7%
same,stability in plasma,[2]; preliminary study,stable
same,hepatic ER (extraction ratio),"[3]; mice, from microsomal clearance, well-stirred model",0.102 ± 0.002
same,"CLu,int,H","[3]; mice, scaled up to the whole liver from microsomes",0.539 ± 0.011 L/h
same,CLhep predicted at 1 μM,"[3]; mouse, liver microsomes, pH 7.4, mice, read-out: CLh calculated from the CLint,mic (converted)",22.7 mL/min/kg
same,microsomal CLint at 1 μM,"[3]; mouse, pH 7.4, mice liver microsomes 0.5 mg/mL, 1 μM, read-out: CLint,mic",80.1 ± 1.7 µL/min/mg
same,percentage remaining in plasma at 5 h,"[4]; 5 h, 37 °C",98.2 ± 3.4%
same,stability in plasma,[4]; preliminary study,stable
